Measurements reported in patent US20250381179A1, “CHROMAN-BASED COMPOUNDS FOR TREATING CANCER” (priority 2024, published 2025).
Read-outs that look alike come from different tables or passages of the source.

Columns and labels:
MCF7 cells = experiment: MCF7 cell growth inhibition (luminescence-based proliferation assay, CellTiter-Glo)
Method: MCF7 cells were obtained from American Type Culture Collection (ATCC). For cell growth assay, MCF7 cells were seeded in 96-well plates at 2000 cells/well in 90 μL of DMEM medium containing 10% fetal bovine serum, and then incubated at 37° C. with 5% CO2 in air overnight. The following day, compound (1-g) and compound (1-h) were administered to the cells by using 1000× compound stock solution prepared in DMSO at concentrations of 3, 1, 0.33, 0.11, 0.037, 0.012, 0.0041, 0.0013, and 0.00046 mM. 1000x compound stock solution was first diluted in culturing medium to 10×, then 10 μL compound medium was added to each well in the cell plates. After administration of compound (1-g) and compound (1-h), the cells were then incubated at 37° C. for 6 days. Upon completion, the plates were equilibrated at room temperature for approximately 10 minutes. 100 μL of CellTiter-Glo® Reagent (Promega) was added to each well. The plates were then incubated at room temperature for 10 minutes and luminescence was recorded by EnSpire plate reader (PerkinElmer).

[1] = Phase 1 study: plasma pharmacokinetics in patients; assay type: in vivo, human; settings: human, plasma, po; for AUC(0-t): read-out: AUC0-24 h of (1-h); for Tmax: read-out: Tmax* of (1-h); for Cmax: read-out: Cmax of (1-h)
Method: All patients received compound (1-g) orally. The time of day for administration of compound (1-g) was consistent. Compound (1-g) was taken whole with liquid(s) and with food in the morning. The patient avoided taking other medications at the same time as compound (1-g). When possible, the patient took other medications in the evening or separated by a minimum of 4 hours following compound (1-g) dosing. On scheduled PK collection days (Cycle 1 Day 1, Cycle 1 Day 15, and Day 1 of Cycles 2, 3, 4, and 6) patients were instructed to wait until they arrive at the study center to take their study drug when told. If a patient missed a dose of compound (1-g), the patient was required to take the dose as soon as possible, but not less than 12 hours before the next dose is due. If vomiting occurred after taking the study treatment, the patient was instructed not to retake the dose and record the dose recorded as taken in the dosing diary, noting that the patient vomited and marking the time of vomiting. Patients were instructed to take the next scheduled dose of compound (1-g).
The plasma PK parameters (including AUC(0-∞), AUC(0-τ), Cmax, tmax, and T1/2) of compound (1-g) following oral administration was assessed by analysis of blood samples. During treatment, PK blood samples were taken at approximately the following time points: • Cycle 1 Day 1, and Day 15: pre-dose; at 1, 2, and 4-hour post-dose (±5 min); 6 and 8-hour post-dose (±10 min); and 24 hours post-dose (+1 hour); • Cycle 2, 3, 4, and 6 Day 1: pre-dose only.
Plasma concentrations of compound (1-g) were used to calculate the PK parameters. These parameters were listed by individual patient and summarized by descriptive statistics (means, medians, ranges, standard deviations, and coefficients of variation as appropriate) by cohort.
Compound (1-g) was administered orally to patients once a day at 100, 200, 300 mg, 400 mg, and 600 mg doses.

[2] = 100 mg, patient plasma after oral (1-g) 100 mg QD, C1D15, n = 2, mean
[3] = 200 mg, patient plasma after oral (1-g) 200 mg QD, C1D1, n = 12, mean
[4] = 200 mg, patient plasma after oral (1-g) 200 mg QD, C1D15, n = 12, mean
[5] = 300 mg, patient plasma after oral (1-g) 300 mg QD, C1D1, n = 10, mean
[6] = 300 mg, patient plasma after oral (1-g) 300 mg QD, C1D15, n = 10, mean
[7] = 400 mg, patient plasma after oral (1-g) 400 mg QD, C1D1, n = 6, mean
[8] = 400 mg, patient plasma after oral (1-g) 400 mg QD, C1D15, n = 5, mean
[9] = 600 mg, patient plasma after oral (1-g) 600 mg QD, C1D1, n = 4, mean
[10] = 600 mg, patient plasma after oral (1-g) 600 mg QD, C1D15, n = 4, mean

O=C1CC[C@@H](N2Cc3cc(N4CCN(CC5CCN(c6ccc([C@@H]7c8ccc(O)cc8OC[C@@H]7c7ccccc7)cc6F)CC5)CC4)ccc3C2=O)C(=O)N1 [compound (1-h), (R)-3-(5-(4-((1-(2-fluoro-4-((3S,4R)-7-hydroxy-3-phenylchroman-4-yl)phenyl)piperidin-4-yl)methyl)piperazin-1-yl)-1-oxoisoindolin-2-yl)piperidine-2,6-dione]
GI50 (MCF7 cells; Homo sapiens, 144 h, MCF7 cells, 6 days, CellTiter-Glo): 9 nM
reduced the tumor growth by (FIG. 3A/3B) (MCF7 cells; MCF7 cell proliferation assay): about 62%
AUC(0-t) ([1]; 100 mg, patient plasma after oral (1-g) 100 mg QD, C1D1, n = 1, mean): 332 ng·h/mL
Tmax ([1]; 100 mg, patient plasma after oral (1-g) 100 mg QD, C1D15, n = 2, *median value): 12 h
AUC(0-t) [1, 2]: 7080 ng·h/mL
Cmax [1, 2]: 326 ng/mL
AUC(0-t) [1, 3]: 1030 ng·h/mL
Cmax [1, 3]: 68.8 ng/mL
Tmax ([1]; 200 mg, patient plasma after oral (1-g) 200 mg QD, C1D15, n = 12, *median value): 7.17 h
AUC(0-t) [1, 4]: 9540 ng·h/mL
Cmax [1, 4]: 428 ng/mL
AUC(0-t) [1, 5]: 1610 ng·h/mL
Cmax [1, 5]: 112 ng/mL
Tmax ([1]; 300 mg, patient plasma after oral (1-g) 300 mg QD, C1D15, n = 10, *median value): 5.8 h
AUC(0-t) [1, 6]: 15400 ng·h/mL
Cmax [1, 6]: 680 ng/mL
AUC(0-t) [1, 7]: 1740 ng·h/mL
Cmax [1, 7]: 118 ng/mL
Tmax ([1]; 400 mg, patient plasma after oral (1-g) 400 mg QD, C1D15, n = 5, *median value): 4.8 h
AUC(0-t) [1, 8]: 17900 ng·h/mL
Cmax [1, 8]: 820 ng/mL
AUC(0-t) [1, 9]: 2470 ng·h/mL
Cmax [1, 9]: 170 ng/mL
Tmax ([1]; 600 mg, patient plasma after oral (1-g) 600 mg QD, C1D15, n = 4, *median value): 10 h
AUC(0-t) [1, 10]: 18700 ng·h/mL
Cmax [1, 10]: 828 ng/mL
